According to US9340577B2, “HLA binding motifs and peptides and their uses” (priority 1992, dated 2016):
No end group written: not given here.

What was measured:
Test in all cases: biochemical
Assay type in all cases: binding
HLA-A1 (A*0101) = HLA-A1 (A*0101) (Homo sapiens, UniProt P04439, A114D/A174V/A182V/D101N/D185E/E176A/E190D/L180R/Q94H/R68K/S129P/T187R/V100A/V91M/W191G)
A*2601 = A*2601 (Homo sapiens, UniProt P04439, A114D/A173T/A270S/D101N/D185E/E277Q/E87N/F33Y/G231S/I121R/I218V/K168Q/L180W/L300P/L318F/P208A/P217A/Q86R/Q94H/R138Q/S129P/T187R/T323A/T345S/V100A/V358M)
A*2902 = A*2902 (Homo sapiens, UniProt P04439, A270S/D101N/D185E/E176V/E277Q/E87Q/F33T/G231S/H175R/I121M/I218V/I322F/K168Q/L300P/L318F/M331R/P208A/P217A/Q86L/T323A/T345S/V100A/V358M)
A*3002 = A*3002 (Homo sapiens, UniProt P04439, D101N/D140H/D185E/E176R/F33S/G80R/H175R/K168Q/Q94H/R138E/R41S/V100E)

Row | Compound | IC50 (HLA-A1 (A*0101)) [nM] | IC50 (A*2601) [nM] | IC50 (A*2902) [nM] | IC50 (A*3002) [nM]
1 | LTHFLLLKY [Peptide 9012.0134] | 32 | 369 | 1.3 | 3.2
2 | GTDVRAMAIY [Peptide 9012.0156] |  | 965 |  | 1.4
3 | GTSSLPTTMNY [Peptide 9012.0194] |  | 2490 | 260 | 7.6
4 | SSDSTTINY [Peptide 9012.0130] | 8.5 |  |  | 898
5 | VTGPGPGY [Peptide 83.0098] | 1840 |  | 1890 | 305
6 | CC(C)C[C@H](NC(=O)[C@H](CC(=O)O)NC(=O)[C@H](CCC(N)=O)NC(=O)[C@@H](N)[C@@H](C)O)C(=O)N[C@H](C(=O)N[C@@H](CCC(N)=O)C(=O)N[C@@H](CCC(=O)O)C(=O)N[C@@H](CCCCN)C(=O)N[C@@H](Cc1ccc(O)cc1)C(=O)O)C(C)C [Peptide 83.0099] | 91 |  | > 20000 | 2100
7 | LTQENYLEY [Peptide 9012.0133] | 16 | 30 | 22 | 23
8 | ITSKASEY [Peptide 9012.0108] | 3290 | 3160 | 15200 | 165
9 | YTMAGVGSPY [Peptide 9012.0153] | 9.8 | 0.32 | 2.2 | 3.5
10 | FTQENYLEY [Peptide 9012.0137] | 13 | 8 | 23 | 99
11 | NTDRHSVVVPY [Peptide 9012.0198] |  | 4610 | 1720 | 9690
12 | GTDPACYEF [Peptide 9012.0135] | 467 |  | 1960 | 9840
13 | ETVPISHLY [Peptide 9012.0132] | 234 | 0.35 | 869 | 2.2
14 | YVMAGVGSPY [Peptide 9012.0152] | 122 | 1.7 | 3.4 | 12
15 | TMDYPLWSQSY [Peptide 9012.0196] |  | 419 | 721 | 99
16 | FTTCLGLSY [Peptide 9012.0136] | 15 | 1.3 | 2.2 | 1300
17 | SSDPSQKTY [Peptide 9012.0139] | 37 | > 20000 | 9710 | 
18 | CC[C@H](C)[C@H](NC(=O)[C@@H]1CCCN1C(=O)[C@H](CC(=O)O)NC(=O)[C@@H](NC(=O)[C@H](CCC(=O)O)NC(=O)[C@@H](N)CCSC)C(C)C)C(=O)NCC(=O)N[C@@H](Cc1c[nH]cn1)C(=O)N[C@@H](CC(C)C)C(=O)N[C@@H](Cc1ccc(O)cc1)C(=O)O [Peptide 1461.06] | 371 | 15 | 307 | 35
19 | GTSSFSTTINY [Peptide 9012.0190] | 4180 | 1490 |  | 86
20 | PTDDPSPLQRY [Peptide 9012.0186] | 32 | > 20000 | 937 | 440
21 | ATSPAFDNLYY [Peptide 9012.0188] | 4.9 | 41 | 9.4 | 0.9
22 | CTDIHYNY [Peptide 9012.0114] | 68 | 2190 | 2550 | 
23 | GTDCTTIHYNY [Peptide 9012.0200] | 29 | 4860 | 959 | 76
24 | DMDDLVDAEEY [Peptide 9012.0184] | 428 | 5660 | > 20000 | 18000
